The source of these data is publication PMC7617456, “Cryptosporidium lysyl-tRNA synthetase inhibitors define the interplay between solubility and permeability required to achieve efficacy” (Science translational medicine, 2024).

Each structure is given as a SMILES string. Entries after “also recorded” stand apart in the source; their conditions may differ. A value given as a limit tells only on which side of the number the result lay.

In one series the test system is HepG2. Briefly: HepG2 in vitro cytotoxicity. As to conditions: for EC50: Homo sapiens, HepG2, cytotoxicity; for Cellular selectivity: ratio of mean HepG2/C. parvum EC50. The class given is cell-based, human.
A further series has as its system wild type C. parvum. Briefly: NOD SCID Gamma mouse efficacy model. The class given is in vivo. As to conditions: for parasite shedding once treatment finished (day 14 PI) / recrudescence (day 21 PI): 10 mg/kg BID oral 7 days; for log reduction in parasite shedding / parasite reduction: 10 mg/kg twice a day oral 7 days; for minimum efficacious dose (MED): BID oral 7 days, reduces parasite burden and prevents recrudescence. On the procedure: An immunocompromised mouse model of cryptosporidiosis (Fig. 1C) was selected to examine the effect of each of the fourteen tool compounds on parasite reduction in vivo. […] Treatment started on day 7 post infection (PI) and concluded on day 13 PI. Infection was determined by measuring the number of parasites shed in the fecal material by quantitative PCR (oocysts/g). Efficacy was determined by calculating the log reduction in the number of oocysts shed by treated animals after completion of compound dosing (day 14) relative to the initial parasite burden in the same group of animals before treatment began (day 7 PI). Hypothesized compound absorption by BCS class is illustrated in Fig. S3. […] No Class I or Class IV compound achieved a log reduction above 2.0 (99% parasite reduction).
Efficacy of tool compounds in the NOD SCID Gamma mouse model was assessed as previously described.([14]) Male mice aged 3-5 weeks old were used, 4 mice per group (NOD.Cg-Prkdc^scid Il2rgtm1Wjl/SzJ; purchased from Jackson Labs). Mice were infected via gavage (100,000 wild type Iowa strain C. parvum oocysts from Bunchgrass Farms). Compounds were prepared fresh daily in HPMC with DMSO (0.5% hydroxypropylmethylcellulose, 0.4% Tween 80 and 0.5% Benzyl alcohol (v/v) plus 5% DMSO) and were administered by oral gavage at the concentration indicated starting 7 days post infection. Paromomycin served as the positive control (administered at 2000 mg/kg). Fecal samples were collected on days indicated. Oocyst shedding in feces was measured using a previously validated qPCR assay.([28])

In series [1] the test system is transgenic C. parvum that express NanoLuciferase. Briefly: NOD SCID Gamma chronic mouse efficacy model. Type of series: in vivo. As to conditions: 50 mg/kg BID oral 7 days from day 36 PI. On the procedure: We next developed a mouse efficacy model that mimics chronic infection. In this model, NOD SCID Gamma mice were allowed to become highly infected (>10^9 RLU) and maintain this for a minimum of one week before compound treatment was administered (Fig. 4C). To achieve efficacy against this chronic infection, compounds must kill more parasites, offering a more rigorous method for assessing suitability for progression.
Male NOD SCID Gamma mice (NOD.Cg-Prkdc^scid Il2rgtm1Wjl/SzJ; purchased from Charles Rivers) aged 10 weeks old were used (n = 4 mice per experimental group). Mice were infected by oral gavage (5,000 oocysts of Δtk::mNeon-Neo^R). Oocyst shedding in feces was determined by NanoLuciferase assay as described above. Once infection became chronic (at least 1 week of fecal RLUs/g at >10^9), compounds were administered. DDD489 was prepared in HPMC without DMSO and administered by oral gavage at 50 mg/kg starting day 36 post infection. Early lead compound DDD706 served as the positive control (administered at 20 mg/kg QD). Fecal samples were pooled from all mice in the cage on days indicated.

A short description of another series: Mouse pharmacokinetics. As to conditions: for AUC / Vd / half-life / Cmax / Tmax / bioavailability: female, BALB/C, whole blood; for AUC / Vd / half-life / Cmax / Tmax / bioavailability / Clb: mouse; for CLB: mouse IV 3 mg/kg, clearance in blood; for Clb: percent of liver blood flow; for mean free (unbound) drug concentration relative to EC90: uninfected mice, 10 mg/kg oral single dose. On the procedure:
Uninfected mice were administered a single oral (10 mg/kg) dose of either DDD489 or DDD508 using the same formulation and dose concentration as for the efficacy study. Blood samples were collected at various time points after drug administration (15, 30, 60, 120, 180, 240, and 480 minutes) and analyzed to produce a concentration-time plot of unbound drug concentration (Fig. 3). […]
Mouse pharmacokinetics (Dundee)
As previously described.(27)
Test compound was dosed as a bolus solution intravenously (IV) at 3mg/kg (dose volume: 5 mL/kg; dose vehicle: 10% DMSO; 40% PEG 400; 50% Milli-Q water) or dosed orally (PO) by gavage as a suspension at 10mg/kg (dose volume: 10 mL/kg; dose vehicle: 1% CMC to female BALB/C mice (n = 3/dose route). Blood samples were taken from each mouse at 5, 15, 30 min, 1, 2, 4, 6, 8 h mixed with nine volumes of Milli-Q water and stored frozen until UPLC/MS/MS analysis. Pharmacokinetic parameters were derived from the blood concentration-time curve using PK solutions software v2.0 (Summit Research Services, USA).

The subject of a further series is wild type parasites (WT). Briefly: Transgenic C. parvum NanoLuciferase drug sensitivity assay, WT. The class given is cell-based. Particulars: Cryptosporidium parvum, HCT-8, 48 h, read-out: EC50, WT.
In a further series the target is CYP450 2C9 (Homo sapiens, UniProt P11712). Briefly: CYP450 inhibition 2C9. Type of series: in vitro ADME. On the procedure: CYP450 inhibition (Dundee)
CYP450 2C9, sequence (P11712 whole entry): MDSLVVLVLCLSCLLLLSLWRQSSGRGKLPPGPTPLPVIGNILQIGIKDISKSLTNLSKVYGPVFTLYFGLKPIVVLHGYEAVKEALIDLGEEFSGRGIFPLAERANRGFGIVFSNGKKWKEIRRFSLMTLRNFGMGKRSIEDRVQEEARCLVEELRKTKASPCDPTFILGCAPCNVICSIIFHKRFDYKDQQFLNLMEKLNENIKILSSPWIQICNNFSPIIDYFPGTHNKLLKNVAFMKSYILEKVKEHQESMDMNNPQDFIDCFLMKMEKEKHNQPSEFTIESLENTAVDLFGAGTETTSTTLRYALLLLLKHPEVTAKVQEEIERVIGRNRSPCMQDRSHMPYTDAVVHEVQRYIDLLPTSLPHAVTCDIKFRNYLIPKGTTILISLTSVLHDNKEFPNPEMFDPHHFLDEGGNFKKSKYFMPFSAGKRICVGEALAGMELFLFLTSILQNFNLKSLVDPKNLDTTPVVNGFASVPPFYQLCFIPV
As previously described.(31)
DDD489 and DDD508 were evaluated for their ability to induce reverse mutations both in the presence and absence of S9 mix at the histidine locus in the genome of four strains of Salmonella typhimurium (TA98, TA100, TA1535, and TA97a) and at the tryptophan locus in the genome of Escherichia coli WP2 uvrA in a mini-Ames study conducted at WuXi App Tec […]
hERG inhibition (WuXi App Tec)
DDD489 and DDD508 were evaluated for their effects on cloned hERG potassium channels stably expressed in Chinese Hamster Ovary (CHO) cells using manual patch-clamp technique in a hERG inhibition assay conducted at WuXi App Tec (Suzhou).
Mitochondrial toxicity (Cyprotex)
DDD489 and DDD508 were evaluated for their effects on mitochondrial function in a functional mitochondrial toxicity assay using Seahorse XFe96 flux analyser conducted at […]
44 screen safety panel (Eurofins)
DDD489 was evaluated for off-target effects in a SafetyScreen44 panel at Eurofins Cerep.
All regulated procedures, at the University of Dundee, on living animals were carried out under the authority of a project license issued by the Home Office under the Animals (Scientific Procedures) Act 1986, as amended in 2012 (and in compliance with EU Directive EU/2010/63). […]

In the next series the test system is C. hominis. Briefly: C. hominis growth inhibition in HCT-8 co-culture (image-based). Particulars: Cryptosporidium hominis, HCT-8, 48 h, read-out: C. hominis EC50.

Description for C. hominis: Cryptosporidium in vitro inhibition (Vermont and Dundee)
Compounds were prepared in 100% DMSO and added at the time of infection (NLuc) or 3 hours post infection (imaging assays). Compounds were prepared at 1% final concentration DMSO in culture. Parasites were quantified at 48 hours post infection. NanoLuciferase was measured using a GloMax Discovery, Promega.
A Nikon Ecl ipse Ti2000 epifluorescence microscope with an automated stage was programmed to focus on the center of each well and take a 3×3 composite image using an EXi blue fluorescence microscopy camera (QImaging) with a 20X objective (NA = 0.45). Nuclei and parasite images were separately exported as .tif files, and parasites and host cells were counted using custom NIH ImageJ macros as reported previously.(29) Dose−response curves were

For `Nc1nc2c(c(C(F)(F)F)n1)C(=O)N(CC1CCCC(C(F)(F)F)C1)C2` (stereo not shown) [DDD489], in the series with HepG2, the EC50 (in general, the concentration needed to bring the measured effect to its halfway point) amounted to 18000 nM and the Cellular selectivity is reported as 450 fold. Moreover, in the series with wild type C. parvum, the “parasite shedding once treatment finished (day 14 PI)” value is reported as “reduces parasite shedding to the level of detection”, the “recrudescence (day 21 PI)” value is given as “unable to prevent recrudescence; also recorded: does not prevent recrudescence”, the “log reduction in parasite shedding” value was above 2.8 log and the parasite reduction is given as above 99.8%. The “minimum efficacious dose (MED)” value with wild type C. parvum was found to be 30 mg/kg. In the series on wild type C. parvum (50 mg/kg BID oral 7 days), the “recrudescence at day 21 PI” value is recorded as “prevents”. In addition, in series [1], the “parasite shedding by end of treatment period” value is reported as “reduce parasite shedding below the LOQ” and the recrudescence result is “failed to prevent recrudescence”. Also, in “Mouse pharmacokinetics” (iv, 3 mg/kg), the AUC (as a rule, the area under the concentration-time curve, a measure of exposure) was 2280 ng·h/mL; the Vd (in general, a proportionality between amount in the body and measured concentration, not a real space) was determined as 2.8 L/kg; the half-life (in general, the time in which the quantity being followed falls by half) was 90 min. Besides, in the series “Mouse pharmacokinetics” (po, 10 mg/kg), the AUC is 517 ng·h/mL; the Cmax (in general, the highest concentration seen after dosing) came to 200 ng/mL; the Tmax (as a rule, the time from dosing to the highest level) was 60 min; the bioavailability (usually the share of a dose that reaches the circulation, judged against a reference dose that is usually intravenous) came out at 7%. For the same compound, in the series “Mouse pharmacokinetics”, the CLB was found to be 22 mL/min/kg, the Clb was determined as 17 % LBF and the “mean free (unbound) drug concentration relative to EC90” value is “remained below the EC90”. For the same compound, in the series with wild type parasites (WT), the EC50 is 85 nM. The midpoint of inhibition against CYP450 2C9, the IC50, lay at 32000 nM. The EC50 with C. hominis was 40 nM.

In the case of `O=C(NCC1(O)CCCCC1)c1cc(=O)c2cc(O)ccc2o1` [DDD508], in the series with HepG2, the EC50 turned out to be 18000 nM and the Cellular selectivity is 140 fold. Besides, in the series on wild type C. parvum, the “parasite shedding once treatment finished (day 14 PI)” value was “parasite shedding to the level of detection”, the “recrudescence (day 21 PI)” value is “unable to prevent recrudescence”, the “log reduction in parasite shedding” value was above 2.8 log and the parasite reduction is listed as above 99.8%. In addition, in the series with wild type C. parvum, the “minimum efficacious dose (MED)” value stood at 30 mg/kg. Moreover, in the series “Mouse pharmacokinetics” (iv, 3 mg/kg), the exposure (AUC) is 1480 ng·h/mL, the Vd is 1.8 L/kg and the half-life was 36 min. Besides, in “Mouse pharmacokinetics” (po, 10 mg/kg), the AUC was 267 ng·h/mL, the Cmax worked out at 200 ng/mL, the Tmax worked out at 15 min and the bioavailability came to 6%. Further, in “Mouse pharmacokinetics”, the CLB was 34 mL/min/kg, the Clb was 27 % LBF and the “mean free (unbound) drug concentration relative to EC90” value is listed as “remained below the EC90”. Moreover, the half-maximal effective concentration (EC50) in the series on wild type parasites (WT) was found to be 270 nM. Also, the IC50 (in general, the concentration that inhibits the measured activity by half) against CYP450 2C9 was above 100000 nM. Moreover, the EC50 in the series on C. hominis worked out at 100 nM.
